# BindingDB's records for doi:10.1021/jm020093q (Brown University, 2002)
# Test: Concentration required for 50% Inhibition of activity against Yersinia Protein-tyrosine phosphatase
row,SMILES,IC50 [µM]
1,O=C(O)C(=O)c1ccc(O)cc1 [(4-Hydroxy-phenyl)-oxo-acetic acid],200
2,O=C(O)C(=O)c1ccc(OCc2ccccc2COc2ccc(C(=O)C(=O)O)cc2)cc1 [{4-[2-(4-Oxalyl-phenoxymethyl)-benzyloxy]-phenyl}-oxo-acetic acid],8.5
3,"O=C(O)C(=O)c1ccc(OCc2cc(COc3ccc(C(=O)C(=O)O)cc3)cc(COc3ccc(C(=O)C(=O)O)cc3)c2)cc1 [{4-[3,5-Bis-(4-oxalyl-phenoxymethyl)-benzyloxy]-phenyl}-oxo-acetic acid]",1.7
4,O=C(O)C(=O)c1ccc(OCc2cccc(COc3ccc(C(=O)C(=O)O)cc3)c2)cc1 [{4-[3-(4-Oxalyl-phenoxymethyl)-benzyloxy]-phenyl}-oxo-acetic acid],4.1
5,O=C(O)C(=O)c1ccc(OCc2ccc(COc3ccc(C(=O)C(=O)O)cc3)cc2)cc1 [{4-[4-(4-Oxalyl-phenoxymethyl)-benzyloxy]-phenyl}-oxo-acetic acid],0.7
